Assay results from patent US8357117B2, “Device and method for delivering an agent into breast milk while breastfeeding” (Family Health International, priority 2008, dated 2013).

Test: release of SDS from dried SDS-dipped non-woven disk in 10 ml syringe, water gravity fed
Assay type: physicochemical
Conditions: non-woven dipped in 20% SDS solution, 3 mm thick disk, no excipients
Text: It was an unexpected result that, without the use of any excipients, a non-woven material could be dipped into an SDS solution to achieve significant loading and release of SDS. Specifically, a piece of soft non-woven material was dipped in a 20% solution of SDS, then dried on a drying rack. After drying, the material was hard and stiff, and felt like a piece of cardboard. It appeared unlikely that the resulting material would even be permeable to water.

release of SDS into water: rapidly released
SMILES: CCCCCCCCCCCCOS(=O)(=O)[O-].[Na+] [SDS, sodium dodecyl sulphate]
